Results taken from paper PMC12040169 (PLOS Biology, 2025).

Experiment: in vitro
Conditions: human, hela cells, % viability

Row | Compound | viability at 28.5 h, 10 µM
1 | Cc1cc(C(=O)N2C3CCC2CC(O)(c2ccnn2C)C3)sc1C (stereo not shown) [CBK284518] | 103%
2 | O=C(Cc1ccccc1F)NCCn1nc2c(cc1=O)CCCCC2 [CBK284519] | 94.7%
3 | Cc1cc(-c2ccc(=O)n(CCNC(=O)C3CCCCC3)n2)c(C)o1 [CBK284522] | 95.7%
4 | N=C1OC2CSCC2N1C(=O)C1(c2ccccc2)CC1 (stereo not shown) [CBK284524] | 106%
5 | O=C(c1cccs1)N1CCC[C@@H]1Cn1c(=O)oc2ccccc21 [CBK284528] | 102%
6 | CCCC(=O)N[C@@H](Cn1c(=O)oc2ccccc21)C(C)C [CBK284536] | 91.2%
7 | O=C(c1ccco1)N1CCC[C@@H]1Cn1c(=O)oc2ccccc21 [CBK284538] | 87.6%
8 | O=C(C1CCCC1)N1CCC[C@@H]1Cn1c(=O)oc2ccccc21 [CBK284539] | 87.3%
9 | CC[C@H](Cn1c(=O)oc2ccccc21)NC(=O)c1cccs1 [CBK284540] | 80.7%
10 | CC[C@H](Cn1c(=O)oc2ccccc21)NC(=O)c1ccco1 [CBK284541] | 86.7%
11 | C[C@H](Cn1nc2c(cc1=O)CCCCC2)NC(=O)Cc1cccs1 [CBK284548] | 100%
12 | COc1ccc(F)c(CN2CC3CCCN3C[C@@H]2C)c1 (stereo partly shown) [CBK284549] | 86.9%
13 | CC[C@@H](Cn1nc2c(cc1=O)CCCCC2)NC(=O)c1ccco1 [CBK284553] | 78.2%
14 | C[C@@H]1CN2CCCC2CN1Cc1ccc2ncccc2c1 (stereo partly shown) [CBK284555] | 99.3%
15 | Cc1nc2nc(-c3ccc(Cl)s3)cn2nc1C [CBK284565] | 103%
16 | CC(C)C(=O)N1C[C@H]2N(C)C(=O)c3ccccc3C(=O)[C@@]2(C)C1 [CBK284568] | 97.8%
17 | CN1C(=O)c2ccccc2C(=O)[C@@]2(C)CN(C(=O)C3CC3)C[C@@H]12 [CBK284569] | 87.3%
18 | CN1C(=O)c2ccccc2C(=O)[C@@]2(C)CN(C(=O)C3CCCC3)C[C@@H]12 [CBK284570] | 91.5%
19 | CC(=O)NCCn1cc2c(n1)[C@H]1CN(C(=O)C(C)C)C[C@H]1CC2 [CBK284571] | 93.3%
20 | CC(=O)NCCn1cc2c(n1)[C@H]1CN(C(=O)CC(C)C)C[C@H]1CC2 [CBK284572] | 99.1%
21 | CCOC(=O)[C@@]12CC=CCN(C(=O)c3ccco3)[C@@H]1CCC2 [CBK284574] | 104%
22 | CCOC(=O)[C@@]12CC=CCN(C(=O)c3cccnc3)[C@@H]1CCC2 [CBK284575] | 90.8%
23 | CCn1ncc(CN2CCC(c3onc4c3CCCC4)CC2)c1C [CBK284576] | 90.2%

Row | Compound | viability at 28.5 h, 10 µM
24 | CCOC(=O)C1(Cc2cc(-c3ccccc3F)no2)CCCNC1 (stereo not shown) [CBK284577] | 85.2%
25 | CCOC(=O)C1(Cc2cc(-c3ccc(F)cc3)no2)CCCNC1 (stereo not shown) [CBK284579] | 84%
26 | CCOC(=O)C1(Cc2cc(-c3ccccc3F)no2)CCNCC1 [CBK284580] | 101%
27 | CCOC(=O)C1(Cc2cc(-c3ccc(F)cc3)no2)CCNCC1 [CBK284581] | 109%
28 | CN(C)[C@@H]1CN(Cc2ccccn2)C[C@H]1c1cn(C)c2ccccc12 [CBK284582] | 97.9%
29 | CC(=O)NCCn1cc2c(n1)[C@H]1CN(C(=O)C3CCC3)C[C@H]1CC2 [CBK284584] | 107%
30 | CC(=O)N1C[C@@H](c2ccsc2)[C@@H]2CN(CC3CCCCC3)CC[C@@H]21 [CBK284587] | 93%
31 | O=C(NC1CC1)c1cc(C2CCCN(Cc3cccc(F)c3)C2)no1 (stereo not shown) [CBK284588] | 99%
32 | CC1CCN(C(=O)[C@@H]2CN(C)C[C@]23CCc2ccccc2C3=O)CC1 [CBK284589] | 100%
33 | CC(=O)N1CCCC(c2cc3cccnc3n2CCN2CCCC2)C1 (stereo not shown) [CBK284591] | 96.8%
34 | Cc1c(C(=O)N2CCCC(c3nc(C)n4ccsc34)C2)cnn1C (stereo not shown) [CBK284593] | 102%
35 | Cc1csc2c(C3CCCN(C(=O)c4ccccn4)C3)nc(C)n12 (stereo not shown) [CBK284594] | 98.6%
36 | COCC(=O)N1CCC(c2onc3c2CC(C)CC3)CC1 (stereo not shown) [CBK284599] | 89.9%
37 | COCC(=O)N1CCC(c2cc(-c3ccc(F)cc3)n[nH]2)C1 (stereo not shown) [CBK284600] | 101%
38 | COc1ccc(OC[C@@H]2C3CCC(C3)N2C(=O)C2CC2)cc1 (stereo partly shown) [CBK284602] | 94.7%
39 | Cc1noc2nc(C3CCCN(C(=O)C4CC4)C3)cc(C(F)F)c12 (stereo not shown) [CBK284608] | 85.8%
40 | O=C1NC2(CCc3ccccc31)CCN(Cc1ccncc1)C2 (stereo not shown) [CBK284610] | 99%
41 | Cc1cccnc1CN1CCC2(CCc3ccccc3C(=O)N2)C1 (stereo not shown) [CBK284611] | 96.4%
42 | O=C(C1CCCC1)N1CCC(c2nnc3n2CCCCC3)CC1 [CBK284612] | 103%
43 | CCCCC(=O)N1CC(n2nc(-c3ccccc3)ccc2=O)C1 [CBK284615] | 95.6%
44 | O=C1NC2(CCc3ccccc31)CCN(C/C=C/c1cccnc1)C2 (stereo not shown) [CBK284622] | 86.2%
45 | O=C(C1CCC1)N1CCC(c2nnc3n2CCCCC3)CC1 [CBK284625] | 103%
46 | O=C(c1ccccc1F)N1CCC(c2nnc3n2CCCCC3)CC1 [CBK284628] | 82.2%

Row | Compound | viability at 28.5 h, 10 µM
47 | CC(C)CC(=O)N1CCC(c2nnc3n2CCCCC3)CC1 [CBK284629] | 83.2%
48 | O=C(NCc1nnc(-c2cccs2)o1)c1cccc(Cl)c1 [CBK284633] | 95.6%
49 | O=C(NCc1nnc(-c2cccs2)o1)c1cccc(F)c1F [CBK284634] | 91.1%
50 | O=C(NCc1nnc(-c2cccs2)o1)c1cccc2ccccc12 [CBK284636] | 82.1%
51 | O=C(NCc1nnc(-c2cccs2)o1)C1(c2ccccc2F)CC1 [CBK284637] | 83.2%
52 | O=C(NCc1nnc(-c2cccs2)o1)C1(c2ccc(F)cc2)CC1 [CBK284638] | 74.4%
53 | O=C(NCc1nnc(-c2cccs2)o1)C1(c2cccc(F)c2)CC1 [CBK284639] | 90.2%
54 | Cc1ccc(-c2nnc(CNC(=O)C3(c4ccccc4)CC3)o2)s1 [CBK284642] | 95.9%
55 | O=C(Cc1ccccc1Cl)NCc1nnc(-c2cccs2)o1 [CBK284643] | 96.4%
56 | Cc1ccc(-c2nnc(CNC(=O)Cc3ccccc3F)o2)s1 [CBK284644] | 78.4%
57 | Cc1ccc(-c2nnc(CNC(=O)Cc3ccc(F)cc3)o2)s1 [CBK284645] | 91.3%
58 | Cc1ccc(-c2nnc(CNC(=O)Cc3ccccc3Cl)o2)s1 [CBK284648] | 85.2%
59 | Nc1ccc([C@@H]2CN(Cc3ccccc3)C[C@]23CCCC(=O)N3)cc1 [CBK284649] | 97.5%
60 | O=C(C1CC1)N1CC(n2nc(-c3cccs3)ccc2=O)C1 [CBK284650] | 85.1%
61 | O=C(C1CC1)N1C2CCC1CC(O)(Cn1ccc3ccncc31)C2 (stereo not shown) [CBK284652] | 90.4%
62 | CC1CC1C(=O)N1C2CCC1CC(O)(Cn1ccc3ccncc31)C2 (stereo not shown) [CBK284653] | 85.6%
63 | COC1CCCC(C(=O)NC(Cc2ccsc2)c2cccnc2)C1 (stereo not shown) [CBK284654] | 84.4%
64 | CCCC(=O)N1CCC(c2nc3ccc(F)cc3cc2N)CC1 [CBK284655] | 92.1%
65 | Nc1cc2cc(F)ccc2nc1C1CCN(C(=O)C2CC2)CC1 [CBK284657] | 93.4%
66 | CC(C)(C)OC(=O)N1CCC(c2nc3ccc(F)cc3cc2N)CC1 [CBK284658] | 88.9%
67 | Cc1nccn1CC1(O)CCN(C(=O)C2(c3ccccc3)CC2)CC1 [CBK284659] | 94.6%
68 | Cc1ccc(C(C)C(=O)N2CCC(O)(Cn3ccnc3C)CC2)cc1 (stereo not shown) [CBK284660] | 83.8%
69 | OC1(Cn2cnc3ccccc32)CCN(Cc2ccccc2F)CC1 [CBK284662] | 85.3%

Row | Compound | viability at 28.5 h, 10 µM
70 | OC1(Cn2cnc3ccccc32)CCN(Cc2cccc(F)c2)CC1 [CBK284663] | 94.9%
71 | O=C(Cn1cccn1)NC(Cc1ccsc1)c1nccs1 (stereo not shown) [CBK284666] | 94%
72 | CC(C)n1cc(C(=O)N2CCCC2c2nc3ccccc3[nH]2)cn1 (stereo not shown) [CBK284667] | 108%
73 | Cc1cc(C2CCCCCN2S(=O)(=O)c2ccc(F)cc2)on1 (stereo not shown) [CBK284668] | 82.2%
74 | CS(=O)(=O)N1CCCCCC1c1cc(-c2ccc(F)cc2)no1 (stereo not shown) [CBK284669] | 91.8%
75 | CS(=O)(=O)N1CCCCCC1c1cc(-c2cccs2)on1 (stereo not shown) [CBK284670] | 85.5%
76 | CC(=O)Nc1ccc(C#CC2(NC(=O)C3CC3)CCCCC2)cn1 [CBK284676] | 87.4%
77 | O=C(Cn1cccc2cc(C3CCNCC3)nc1-2)N1CCCCCC1 [CBK284679] | 95.6%
78 | O=C(Cn1cccc2cc(C3CCNCC3)nc1-2)N1CCCC1 [CBK284680] | 98%
79 | CCC(C)NC(=O)Cn1cccc2cc(C3CCNCC3)nc1-2 (stereo not shown) [CBK284681] | 110%
80 | Cc1cnc2[nH]c(C3CCN(C(=O)c4cnn(C)c4C)CC3)cc2c1 [CBK284684] | 88.8%
81 | Cc1cc(C(F)(F)F)n2nc(C3CCCN3C(=O)C(C)C)cc2n1 (stereo not shown) [CBK284685] | 93%
82 | CC1CCCN(Cc2c(C3CCOCC3)[nH]c3ncccc23)C1 (stereo not shown) [CBK284687] | 97%
83 | Cc1nccn1CC1(O)CCN(C(=O)CCc2ccccc2F)CC1 [CBK284689] | 96.6%
84 | CN1C(=O)c2ccccc2C(=O)[C@@]2(C)CN(Cc3ccccc3)C[C@@H]12 [CBK284692] | 95.1%
85 | Cn1cnc2cc(NCc3cc(-c4ccc(F)cc4)c[nH]c3=O)ccc21 [CBK284693] | 50.7%
86 | O=c1[nH]cc(-c2ccc(F)cc2)cc1CNCc1ccc(F)cc1 [CBK284695] | 96.1%
87 | O=c1[nH]cc(-c2ccc(F)cc2)cc1CNCc1cccc(F)c1 [CBK284697] | 94.6%
88 | CCn1ncc(CN2CCCC(c3cc4cccnc4[nH]3)C2)c1C (stereo not shown) [CBK284700] | 96.9%
89 | CCn1cc(CN2CCCC(c3cc4cccnc4[nH]3)C2)c(C)n1 (stereo not shown) [CBK284701] | 89.2%
90 | C[C@]12CN(Cc3cccs3)C[C@H]1NC(=O)c1ccccc1C2=O [CBK284702] | 89.2%
91 | C[C@]12CN(Cc3ccccc3)C[C@H]1NC(=O)c1ccccc1C2=O [CBK284703] | 96.5%
